# Test results: ChEMBL document CHEMBL1154382, “Preliminary SAR analysis of novel antiproliferative N(6),5'-bis-ureidoadenosine derivatives” (2009)
# What was measured:
# Format in all cases: functional
# Conditions in all cases: values are per cent of control
# CCRF-CEM = test: Antiproliferative activity against human CCRF-CEM cells at 10 uM assessed as cell growth inhibition relative to control
# HL-60(TB) = test: Antiproliferative activity against human HL-60(TB) cells at 10 uM assessed as cell growth inhibition relative to control
# K562 = test: Antiproliferative activity against human K562 cells at 10 uM assessed as cell growth inhibition relative to control
# MOLT-4 = test: Antiproliferative activity against human MOLT4 cells at 10 uM assessed as cell growth inhibition relative to control
# [1] = Antiproliferative activity against human […] cells at 10 uM assessed as cell growth inhibition relative to control
# A549 = test: Antiproliferative activity against human A549 cells at 10 uM assessed as cell growth inhibition relative to control
# EKVX = test: Antiproliferative activity against human EKVX cells at 10 uM assessed as cell growth inhibition relative to control
# PC-3 = test: Antiproliferative activity against human PC3 cells at 10 uM assessed as cell growth inhibition relative to control
# HOP-62 = test: Antiproliferative activity against human HOP62 cells at 10 uM assessed as cell growth inhibition relative to control
# HOP-92 = test: Antiproliferative activity against human HOP92 cells at 10 uM assessed as cell growth inhibition relative to control
# NCI-H226 = test: Antiproliferative activity against human NCI-H226 cells at 10 uM assessed as cell growth inhibition relative to control
# NCI-H23 = test: Antiproliferative activity against human NCI-H23 cells at 10 uM assessed as cell growth inhibition relative to control
# NCI-H322M = test: Antiproliferative activity against human NCI-H322M cells at 10 uM assessed as cell growth inhibition relative to control
# NCI-H460 = test: Antiproliferative activity against human NCI-H460 cells at 10 uM assessed as cell growth inhibition relative to control
# NCI-H522 = test: Antiproliferative activity against human NCI-H522 cells at 10 uM assessed as cell growth inhibition relative to control
# COLO 205 = test: Antiproliferative activity against human COLO205 cells at 10 uM assessed as cell growth inhibition relative to control
# HCC 2998 = test: Antiproliferative activity against human HCC2998 cells at 10 uM assessed as cell growth inhibition relative to control
# HCT-116 = test: Antiproliferative activity against human HCT116 cells at 10 uM assessed as cell growth inhibition relative to control
# HCT-15 = test: Antiproliferative activity against human HCT15 cells at 10 uM assessed as cell growth inhibition relative to control
# HT-29 = test: Antiproliferative activity against human HT-29 cells at 10 uM assessed as cell growth inhibition relative to control
# KM12 = test: Antiproliferative activity against human KM12 cells at 10 uM assessed as cell growth inhibition relative to control
# SW-620 = test: Antiproliferative activity against human SW620 cells at 10 uM assessed as cell growth inhibition relative to control
# LOX IMVI = test: Antiproliferative activity against human LOXIMVI cells at 10 uM assessed as cell growth inhibition relative to control
# Malme-3M = test: Antiproliferative activity against human MALME-3M cells at 10 uM assessed as cell growth inhibition relative to control
# M14 = test: Antiproliferative activity against human M14 cells at 10 uM assessed as cell growth inhibition relative to control
# SK-MEL-2 = test: Antiproliferative activity against human SK-MEL-2 cells at 10 uM assessed as cell growth inhibition relative to control
# SK-MEL-28 = test: Antiproliferative activity against human SK-MEL-28 cells at 10 uM assessed as cell growth inhibition relative to control
# SK-MEL-5 = test: Antiproliferative activity against human SK-MEL-5 cells at 10 uM assessed as cell growth inhibition relative to control
# UACC-257 = test: Antiproliferative activity against human UACC257 cells at 10 uM assessed as cell growth inhibition relative to control
# UACC-62 = test: Antiproliferative activity against human UACC62 cells at 10 uM assessed as cell growth inhibition relative to control
# SF-268 = test: Antiproliferative activity against human SF268 cells at 10 uM assessed as cell growth inhibition relative to control
# SF-295 = test: Antiproliferative activity against human SF295 cells at 10 uM assessed as cell growth inhibition relative to control
# SF-539 = test: Antiproliferative activity against human SF539 cells at 10 uM assessed as cell growth inhibition relative to control
# SNB-19 = test: Antiproliferative activity against human SNB19 cells at 10 uM assessed as cell growth inhibition relative to control
# SNB-75 = test: Antiproliferative activity against human SNB75 cells at 10 uM assessed as cell growth inhibition relative to control
# U-251 = test: Antiproliferative activity against human U251 cells at 10 uM assessed as cell growth inhibition relative to control
# IGROV-1 = test: Antiproliferative activity against human IGROV1 cells at 10 uM assessed as cell growth inhibition relative to control
# OVCAR-3 = test: Antiproliferative activity against human OVCAR-3 cells at 10 uM assessed as cell growth inhibition relative to control
# OVCAR-4 = test: Antiproliferative activity against human OVCAR4 cells at 10 uM assessed as cell growth inhibition relative to control
# OVCAR-5 = test: Antiproliferative activity against human OVCAR5 cells at 10 uM assessed as cell growth inhibition relative to control
# OVCAR-8 = test: Antiproliferative activity against human OVCAR8 cells at 10 uM assessed as cell growth inhibition relative to control
# SK-OV-3 = test: Antiproliferative activity against human SKOV3 cells at 10 uM assessed as cell growth inhibition relative to control
# 786-0 = test: Antiproliferative activity against human 786-0 cells at 10 uM assessed as cell growth inhibition relative to control
# A498 = test: Antiproliferative activity against human A498 cells at 10 uM assessed as cell growth inhibition relative to control
# ACHN = test: Antiproliferative activity against human ACHN cells at 10 uM assessed as cell growth inhibition relative to control
# CAKI-1 = test: Antiproliferative activity against human Caki1 cells at 10 uM assessed as cell growth inhibition relative to control
# RXF 393 = test: Antiproliferative activity against human RXF393 cells at 10 uM assessed as cell growth inhibition relative to control
# SN12C = test: Antiproliferative activity against human SN12C cells at 10 uM assessed as cell growth inhibition relative to control
# TK-10 = test: Antiproliferative activity against human TK10 cells at 10 uM assessed as cell growth inhibition relative to control
# UO-31 = test: Antiproliferative activity against human UO31 cells at 10 uM assessed as cell growth inhibition relative to control
# BT-549 = test: Antiproliferative activity against human BT549 cells at 10 uM assessed as cell growth inhibition relative to control
# [2] = Antiproliferative activity against human Hs 578T cells at 10 uM assessed as cell growth inhibition relative to control
# MCF7 = test: Antiproliferative activity against human MCF7 cells at 10 uM assessed as cell growth inhibition relative to control
# MDA-MB-231 = test: Antiproliferative activity against human MDA-MB-231 cells at 10 uM assessed as cell growth inhibition relative to control
# MDA-MB-468 = test: Antiproliferative activity against human MDA-MB-468 cells at 10 uM assessed as cell growth inhibition relative to control
# T47D = test: Antiproliferative activity against human T47D cells at 10 uM assessed as cell growth inhibition relative to control
# DU-145 = test: Antiproliferative activity against human DU145 cells at 10 uM assessed as cell growth inhibition relative to control
structure (smiles),measurement,setting,value
CCOC(=O)C=C1[C@@H](O[Si](C)(C)C(C)(C)C)[C@H](n2cnc3c(N)ncnc32)O[C@@H]1CNC(=O)NC,"growth, % of control at 10 µM",CCRF-CEM,119%
same,"growth, % of control at 10 µM",HL-60(TB),76%
same,"growth, % of control at 10 µM",K562,84%
same,"growth, % of control at 10 µM",MOLT-4,75%
same,"growth, % of control at 10 µM",[1],81%
same,"growth, % of control at 10 µM",A549,100%
same,"growth, % of control at 10 µM",EKVX,86%
same,"growth, % of control at 10 µM",PC-3,93%
same,"growth, % of control at 10 µM",HOP-62,99%
same,"growth, % of control at 10 µM",HOP-92,90%
same,"growth, % of control at 10 µM",NCI-H226,90%
same,"growth, % of control at 10 µM",NCI-H23,99%
same,"growth, % of control at 10 µM",NCI-H322M,81%
same,"growth, % of control at 10 µM",NCI-H460,110%
same,"growth, % of control at 10 µM",NCI-H522,74%
same,"growth, % of control at 10 µM",COLO 205,76%
same,"growth, % of control at 10 µM",HCC 2998,71%
same,"growth, % of control at 10 µM",HCT-116,52%
same,"growth, % of control at 10 µM",HCT-15,90%
same,"growth, % of control at 10 µM",HT-29,65%
same,"growth, % of control at 10 µM",KM12,60%
same,"growth, % of control at 10 µM",SW-620,88%
same,"growth, % of control at 10 µM",LOX IMVI,74%
same,"growth, % of control at 10 µM",Malme-3M,105%
same,"growth, % of control at 10 µM",M14,87%
same,"growth, % of control at 10 µM",SK-MEL-2,94%
same,"growth, % of control at 10 µM",SK-MEL-28,111%
same,"growth, % of control at 10 µM",SK-MEL-5,75%
same,"growth, % of control at 10 µM",UACC-257,95%
same,"growth, % of control at 10 µM",UACC-62,79%
same,"growth, % of control at 10 µM",SF-268,98%
same,"growth, % of control at 10 µM",SF-295,88%
same,"growth, % of control at 10 µM",SF-539,92%
same,"growth, % of control at 10 µM",SNB-19,88%
same,"growth, % of control at 10 µM",SNB-75,98%
same,"growth, % of control at 10 µM",U-251,53%
same,"growth, % of control at 10 µM",IGROV-1,46%
same,"growth, % of control at 10 µM",OVCAR-3,65%
same,"growth, % of control at 10 µM",OVCAR-4,71%
same,"growth, % of control at 10 µM",OVCAR-5,88%
same,"growth, % of control at 10 µM",OVCAR-8,104%
same,"growth, % of control at 10 µM",SK-OV-3,102%
same,"growth, % of control at 10 µM",786-0,77%
same,"growth, % of control at 10 µM",A498,78%
same,"growth, % of control at 10 µM",ACHN,70%
same,"growth, % of control at 10 µM",CAKI-1,85%
same,"growth, % of control at 10 µM",RXF 393,105%
same,"growth, % of control at 10 µM",SN12C,90%
same,"growth, % of control at 10 µM",TK-10,85%
same,"growth, % of control at 10 µM",UO-31,76%
same,"growth, % of control at 10 µM",BT-549,80%
same,"growth, % of control at 10 µM",[2],107%
same,"growth, % of control at 10 µM",MCF7,94%
same,"growth, % of control at 10 µM",MDA-MB-231,81%
same,"growth, % of control at 10 µM",MDA-MB-468,71%
same,"growth, % of control at 10 µM",T47D,79%
same,"growth, % of control at 10 µM",DU-145,71%
